According to article PMC10630452, “The tumor-enriched small molecule gambogic amide suppresses glioma by targeting WDR1-dependent cytoskeleton remodeling” (Signal Transduction and Targeted Therapy, 2023):

Tests used:
T19-1 cells (PDC) = assay: IC50 assay (MTS cell viability); format: cell-based; conditions: Homo sapiens, T19-1, PDC, 48 h
Protocol: (§1) Four PDC lines (T12-1, T12-2, T2-4, T19-1) obtained from the Beijing Tiantan Hospital[53] and three GSC lines (GSC2, U87MG-SLC, U251-SLC) were established and verified in our previous work.[17] Two GCSC lines were kindly provided by Dr. Ran.[54] These cell lines were cultured in neurobasal medium (Gibco) containing 2% B27 (Gibco), 1% 100 × Antibiotic-Antimycotic (Gibco), 2 mmol/L L-glutamine (catalog SH30034.01, HyClone), 20 ng/mL bFGF (catalog 100-18B-50UG, PeproTech), 20 ng/mL EGF (catalog AF-100-15-100UG, PeproTech), and 10 μg/mL heparin (Sigma‒Aldrich). H1-NSCs obtained from D.Q. Pei’s laboratory (Guangzhou Institutes of Biomedicine and Health, Chinese Academy of Sciences, Guangzhou, China), were cultured in the same medium as the PDCs, with the addition of 1% N-2 supplement (Gibco, Thermo Fisher Scientific). The human astrocyte (HA) cell line was purchased from ScienCell and cultured in commercial astrocyte medium (catalog 1801, ScienCell) supplemented with 1% AGS (ScienCell), 2% FBS (ScienCell) and 1% P/S solution (ScienCell). Regarding the GC cell lines, U87MG cells were purchased from the American Type Culture Collection (ATCC), and U251 cells were purchased from the Cell Center of Peking Union Medical College. The GC cells were cultured in DMEM (Gibco) supplemented with 10% FBS (ScienCell) and 1% 100 × Antibiotic-Antimycotic.
(§2) Cells were seeded in 96-well plates and treated with 0, 0.03, 0.1, 0.3, 1, 3, 10, or 30 μM GA-amide (Santa Cruz) in triplicate. After 48 h of incubation, cell viability was quantified using the MTS assay, and the GA-amide cytotoxicity curve was estimated using GraphPad Prism.

[1] = tested on: HA (human astrocyte) cells; assay: IC50 assay (MTS cell viability); format: cell-based; conditions: normal cells (NC), 48 h
Protocol: as §1, §2

H1P56NSC (H1-NSCs) = assay: IC50 assay (MTS cell viability); format: cell-based; conditions: Homo sapiens, normal cells (NC), 48 h
Protocol: as §1, §2

WDR1 [2] = target: T1, WDR1 (Homo sapiens, UniProt O75083); assay: Cellular thermal shift assay (CETSA) in T2-4 cells; format: cell-based; conditions: 3 µM, 1 h, 67°C–70°C
T1 construct: GA-amide protected WDR1 at different temperature gradients in the CETSA in T2-4 cells; endogenous in cells; host or cells: T2-4 patient-derived glioma cells
Protocol: The cellular thermal shift assay (CETSA) has been described previously. Briefly, cells were incubated with DMSO or 3 µM GA-amide for 1 h and washed with PBS three times. Then, the cells were suspended in 1 mL of PBS and divided into equal volumes, followed by heating for 3 min at the indicated temperatures. After heating, three snap freeze–thaw cycles were applied to lyse the cells, and western blotting was performed as previously described.

[3] = tested on: primary brain tumor (H-RasV12 activated, p53 silenced); assay: Transgenic mouse glioma model (pTomo-Ras-sip53 lentivirus); format: in vivo, C57BL/6 mice; conditions: 1 mg/kg i.v. daily for 11 days
Protocol: Fig. 3 The inhibitory effects of GA-amide in glioma stem cell-derived mouse models and transgenic mouse models. a, b GSC2 cells were implanted s.c. into nude mice. Mice were treated with control (DMSO) (n = 7) or GA-amide (2 mg/kg) (n = 8) via i.p. injection once daily for 11 days, after which a photograph (a) was taken to show the tumor volume, and the tumor volume was calculated by a modified ellipsoid formula in (b). c, d GSC2 cells were implanted intracranially into nude mice. Mice were injected i.v. with control (n = 8) or 1 mg/kg GA-amide (n = 8) daily for 13 days, the Mantel‒Cox log–rank test was used for analysis, and the relative survival curves are shown in (c). The body weights are shown in (d). e In vivo efficacy studies of GA-amide using transgenic mouse models. Glioma was induced in transgenic C57BL/6 mice by injection of pTomo-Ras-sip53 lentivirus, and the strategy is shown. f, g MRI analysis was used to group mice into the control (n = 7) and GA-amide-treated groups (n = 8) before treatment. The statistical results are shown in (f), and representative MRI images are shown in (g). […]

TrkA = target: T2, TrkA (Homo sapiens, UniProt P04629); assay: Western blot of TrkA phosphorylation in GSCs; format: cell-based; conditions: GSC2 and U87MG-SLC cells, 4 hours
T2 construct: endogenous in cells; host or cells: GSC2 and U87MG-SLC glioma stem cells
Protocol: Proteins in the samples were separated on SDS–polyacrylamide gels and transferred to nitrocellulose membranes (Amersham, Sweden). After blocking with 5% skim milk, the membranes were incubated with the indicated primary antibodies listed in Supplementary Table 3 overnight. After washing with 1 × TBST three times, the membranes were incubated with secondary antibodies, and protein bands were detected by using ECL reagent.
Supplementary Fig. 5 TrkA was not the functional target for GA-amide to inhibit glioma. a Western blot analyses of the TrkA and p-TrkA expression in GSC2 and U87MG-SLC cells with GA-amide treatment for 4 hours. b Western blot analyses of the p-TrkA expression in GSC2 with GA-amide treatment for different times. c, d The combination effects of GA-amide with GW441756, a TrkA inhibitor, or with K252a, an inhibitor of Trk family in GSC2 (c) and U87MG-SLC (d) (48 hours, n = 3).

WDR1 [4] = target: T1, WDR1; assay: Drug affinity responsive target stability (DARTS) in T2-4 cells; format: binding; conditions: T2-4 lysate, 1 h incubation, pronase 30 min
Protocol: The drug affinity responsive target stability (DARTS) method was performed following a previously described procedure.[32] In brief, cells were collected and lysed with M-PER lysis buffer (catalog 78501, Thermo Fisher Scientific) containing complete protease inhibitor (catalog 04693124001, Roche) and phosphatase inhibitors (catalog 04906845001, Roche). Then, the lysis buffer was supplemented with TNC buffer. The lysates were aliquoted into 1.5 mL tubes and incubated with DMSO or different concentrations of GA-amide for 1 h at room temperature. After incubation, the lysates were digested with 1 μg of pronase for every 300 μg of lysate for exactly 30 min. Then, protein loading buffer was added immediately, and the lysates were heated to stop proteolysis. Western blot analysis was performed for further analysis.

T1 sequence (O75083 whole entry): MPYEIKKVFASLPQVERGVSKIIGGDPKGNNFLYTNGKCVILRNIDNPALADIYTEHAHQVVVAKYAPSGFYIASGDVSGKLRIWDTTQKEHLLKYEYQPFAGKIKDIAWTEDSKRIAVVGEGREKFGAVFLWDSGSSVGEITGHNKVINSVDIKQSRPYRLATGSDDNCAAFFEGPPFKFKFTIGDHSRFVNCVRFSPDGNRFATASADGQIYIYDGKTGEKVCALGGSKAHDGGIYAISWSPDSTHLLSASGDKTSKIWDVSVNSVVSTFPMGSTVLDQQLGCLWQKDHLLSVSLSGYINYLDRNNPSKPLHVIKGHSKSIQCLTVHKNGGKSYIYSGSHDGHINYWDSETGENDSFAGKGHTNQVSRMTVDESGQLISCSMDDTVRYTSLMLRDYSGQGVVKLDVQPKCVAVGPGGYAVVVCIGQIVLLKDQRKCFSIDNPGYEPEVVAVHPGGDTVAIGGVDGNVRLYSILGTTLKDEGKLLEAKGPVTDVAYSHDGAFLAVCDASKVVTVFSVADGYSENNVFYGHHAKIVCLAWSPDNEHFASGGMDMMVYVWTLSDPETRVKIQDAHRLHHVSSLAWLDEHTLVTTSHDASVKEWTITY
T2 sequence (P04629 33-796): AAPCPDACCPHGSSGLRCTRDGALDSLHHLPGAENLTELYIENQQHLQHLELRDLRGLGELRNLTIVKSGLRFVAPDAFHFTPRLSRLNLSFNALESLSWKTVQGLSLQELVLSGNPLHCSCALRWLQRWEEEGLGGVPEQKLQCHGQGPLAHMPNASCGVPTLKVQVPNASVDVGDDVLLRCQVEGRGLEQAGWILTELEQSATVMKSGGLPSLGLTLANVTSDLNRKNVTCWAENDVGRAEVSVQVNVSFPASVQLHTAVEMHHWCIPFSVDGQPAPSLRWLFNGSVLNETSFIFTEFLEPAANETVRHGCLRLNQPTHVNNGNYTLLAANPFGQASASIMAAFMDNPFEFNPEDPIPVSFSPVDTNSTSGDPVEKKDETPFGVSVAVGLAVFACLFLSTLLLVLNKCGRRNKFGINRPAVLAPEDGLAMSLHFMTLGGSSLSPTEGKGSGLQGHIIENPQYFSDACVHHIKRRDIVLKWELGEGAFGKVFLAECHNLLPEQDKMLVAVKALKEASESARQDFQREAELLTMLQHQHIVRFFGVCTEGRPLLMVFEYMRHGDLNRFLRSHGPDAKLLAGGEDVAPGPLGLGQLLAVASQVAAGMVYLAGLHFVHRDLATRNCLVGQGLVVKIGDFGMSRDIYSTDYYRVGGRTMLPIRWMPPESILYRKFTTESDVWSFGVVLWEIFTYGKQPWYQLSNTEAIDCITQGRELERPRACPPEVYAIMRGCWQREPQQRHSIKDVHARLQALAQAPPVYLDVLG

CC(C)=CCC[C@]1(C)C=Cc2c(O)c3c(c(CC=C(C)C)c2O1)O[C@]12C(=C[C@@H]4CC1C(C)(C)O[C@@]2(C/C=C(/C)C(N)=O)C4=O)C3=O [GA-amide, gambogic amide]
IC50 (T19-1 cells (PDC)): 277 nM | IC50 [1]: 1030 nM | IC50 (H1P56NSC (H1-NSCs)): 941 nM | WDR1 thermal stabilization (western blot band) (WDR1 [2]): the band persisted in the cells treated with GA-amide | Ki67 and CD133 expression in tumor sections [3]: lower expression of the proliferation marker Ki67 | tumor size by MRI versus control [3]: significantly smaller compared to the control mice | TrkA phosphorylation (TrkA): TrkA was phosphorylated at Y751 and Y490 in GSCs | WDR1 stabilization against pronase digestion (WDR1 [4]): significantly promoted WDR1 stabilization during pronase-induced degradation
